Holding throughout (format): cell-based, human
Assay [1] relates to H2009. Briefly: Cell viability dose-response, H2009. The conditions noted are these: Homo sapiens, NCI-H2009; Tables 3 and 4; read-out: IC50 (uM) vs indicated non-small cell lung cancer cell line H2009. In outline: (§1)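 Compound is titrated onto cells seeded at 15% confluence and incubated four days in 5% FBS RPMI-1640 medium. ATP-based luminescence gives viability; duplicate means ±SEM define the dose-response curve.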

The test system of assay [2] is HBEC30KT. Kind of assay: Cell viability (ATP, Cell Titer Glo, 4 days), HBEC30KT. As to conditions: Homo sapiens. As for the experimental part: (§2) FIG. 6A. […] Cell viability is plotted vs. compound concentration. Compound was added to cells plated at 15% confluence in 96-well plates in RPMI-1640 media supplemented with 5% Fetal Bovine Serum and 2 mM L-Glutamine. After 4 days of incubation, ATP levels were measured using Cell Titer Glo (Promega). Data are presented as the average of 2 replicates ±SEM.
(§3) Selectivity may be measured by the half maximal inhibitory concentration (IC50), which, as used herein, is a measure of the effectiveness of a compound in killing cells. This quantitative measure indicates how much of a particular compound is needed to kill a particular cell population by half (e.g., as indicated by the amount of ATP). […] The IC50 can be determined by constructing a dose-response curve. The lower the IC50, the higher the potency, and the greater the difference between IC50 values for different cell lines (e.g., sensitive lines vs. insensitive lines, and sensitive lines vs. normal lines) the greater the selectivity. […]

Assay [3] relates to H2122. Kind of assay: Cell viability dose-response, H2122. As to conditions: Homo sapiens. In outline: (§4)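 Viability read as total ATP (Cell Titer Glo) following 4 days' compound exposure, with IC50 derived from dose-response curves. Duplicate 12-point series, top concentration 50 micromolar with 3-fold steps, on cells seeded at 15% confluence in RPMI-1640, 5% FBS, 2 mM L-glutamine.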

The test system of assay [4] is H1819. Kind of assay: Cell viability dose-response, H1819. The conditions noted are these: Homo sapiens. A digest of the protocol: as §4
Assay [5] relates to H2073. Kind of assay: Cell viability dose-response, H2073. As to conditions: Homo sapiens, NCI-H2073, Tables 3 and 4; read-out: IC50 (uM) vs indicated non-small cell lung cancer cell line H2073. Here is the method:
as §2, §3
(§5) With this information, we synthesized and tested a series of small molecules derived in conception from the oxalamide and chromone scaffold including N-acyl ureas, as shown in Tables 6-8. Each compound was tested in a 12-point dose-response study starting at 50 micromolar and decreasing in 3-fold increments to sub-nanomolar concentrations, in duplicate. Additionally, one or more additional cell line was tested in the same way.

The subject of assay [6] is HCC44. Kind of assay: Cell viability dose-response, HCC44. As to conditions: Homo sapiens, HCC44, Tables 3 and 4; read-out: IC50 (uM) vs indicated non-small cell lung cancer cell line HCC44. A digest of the protocol:
as §1

The test system of assay [7] is HCC4017. Briefly: Cell viability dose-response, HCC4017. As to conditions: Homo sapiens, HCC4017, Tables 3 and 4; read-out: IC50 (uM) vs indicated non-small cell lung cancer cell line HCC4017. As for the experimental part: as §2, §3, §5
[8] abbreviates: Tables 3 and 4, read-out: HBEC30KT IC50.
The mark [9] stands for this setting: NCI-H2122, Tables 3 and 4, read-out: IC50 (uM) vs indicated non-small cell lung cancer cell line H2122.
Setting [10] is: NCI-H1819, Tables 3 and 4, read-out: IC50 (uM) vs indicated non-small cell lung cancer cell line H1819.
The mark [11] stands for this setting: 12-point dose-response starting at 50 micromolar, 3-fold increments, in duplicate, read-out: toxicity data, HBEC30KT.
[12] abbreviates: NCI-H2122, 12-point dose-response starting at 50 micromolar, 3-fold increments, in duplicate, read-out: toxicity data, H2122.
[13] abbreviates: NCI-H1819, 12-point dose-response starting at 50 micromolar, 3-fold increments, in duplicate, read-out: toxicity data, H1819.

Like-named read-outs stand apart in the source and are kept apart here.

Here are results for 33 compounds from patent publication US9789096B2, “Methods and compositions for selective and targeted cancer therapy” (Board of Regents of the University of Texas System, priority 2013, dated 2017).

Take `COc1ccc2nc(NC(=O)Cc3ccccc3)sc2c1` [SW202749]: the IC50 in assay [1] was determined as 75.2 µM; in assay [2] (setting [8]) it was 234 µM; in assay [3] (setting [9]), 60.4 µM; in assay [4] (setting [10]), 57.6 µM; in assay [5], 70.4 µM.

Consider `COc1ccc2nc(NC(=O)c3ccccc3)sc2c1` [SW202743], for which the IC50 was 20.6 µM in assay [1]; 22.3 µM in assay [2] (setting [8]); 0.538 µM in assay [3] (setting [9]); 19.8 µM in assay [4] (setting [10]); 7.04 µM in assay [5].

`Cc1cc2sc(N)nc2cc1[N+](=O)[O-]` [SW202740]: the IC50 was found to be 111 µM in assay [1], 129 µM in assay [2] (setting [8]), 82.5 µM in assay [4] (setting [10]) and 114 µM in assay [5].

In the case of `Nc1ccc2sc(NC(=O)c3ccccc3)nc2c1` [SW202741], the IC50 was found to be 8.42 µM in assay [1]; 13 µM in assay [2] (setting [8]); 8.13 µM in assay [3] (setting [9]); 11.9 µM in assay [4] (setting [10]); 9.79 µM in assay [5].

With `COc1ccc2nc(NC(=O)c3ccc([N+](=O)[O-])o3)sc2c1` [SW202753], the IC50 in assay [1] was 13.4 µM; in assay [2] (setting [8]), 20 µM; in assay [3] (setting [9]), 4.36 µM; in assay [4] (setting [10]), 18.2 µM; in assay [5] it was 6.25 µM.

Turning to `COc1ccc(C(=O)Nc2nc3ccccc3s2)cc1` [SW003087], the IC50 in assay [1] was 31.3 µM; in assay [2] (setting [8]), 100 µM; in assay [3] (setting [9]), 2.62 µM; in assay [4] (setting [10]), 37.4 µM; in assay [5], 11.7 µM.

For the compound `COc1ccc2nc(NC(=O)c3ccc(Br)cc3)sc2c1` [SW000931], the IC50 in assay [2] (setting [8]) was 360 µM; in assay [3] (setting [9]) it was 2.62 µM; in assay [4] (setting [10]) it was 308 µM; in assay [5] it was 2.33 µM.

As for `COc1ccc(CCNC(=O)C(=O)Nc2cc(C(F)(F)F)c(Br)c(C(F)(F)F)c2)cc1` [SW207012-1], the values for the IC50 in assay [2] (setting [11]), in assay [3] (setting [12]) and in assay [4] (setting [13]) were 18 µM, 11.8 µM and not below 49.5 µM, respectively.

`Cc1cccc(C(=O)Nc2nc3ccccc3s2)c1` [SW202755]: the IC50 in assay [1] came to 53.9 µM; in assay [2] (setting [8]) it was 106 µM; in assay [3] (setting [9]), 0.734 µM; in assay [4] (setting [10]), 47.8 µM; in assay [5], 25.1 µM.

Turning to `COc1cccc(C(=O)Nc2nc3ccc(OC)cc3s2)c1` [SW202747], the IC50 in assay [1] came to 21.2 µM; in assay [2] (setting [8]), 29.5 µM; in assay [3] (setting [9]) it was 0.306 µM; in assay [4] (setting [10]) it was 20.5 µM; in assay [5] it was 10.3 µM.

Regarding `COc1ccc(C(=O)Nc2nc3ccc(OC)cc3s2)cc1` [SW202745], the IC50 in assay [2] (setting [8]) stood at 336 µM; in assay [3] (setting [9]), 1.09 µM; in assay [4] (setting [10]), 64.3 µM; in assay [5], 2.12 µM.

On to `O=C(O)c1sc2ccccc2c1Cl` [SW138238], for which the IC50 amounted to 179 µM in assay [1], 4950 µM in assay [2] (setting [8]) and 1170 µM in assay [4] (setting [10]).

Regarding `O=C(Nc1ccc(NC(=O)c2sc3ccccc3c2Cl)cc1)c1ccco1` [SW163400], the IC50 in assay [2] (setting [8]) was 69.3 µM; in assay [3] (setting [9]), 0.897 µM; in assay [6] it was 723 µM.

As to `COc1ccc2nc(NS(=O)(=O)c3ccc([N+](=O)[O-])cc3)sc2c1` [SW166933], the IC50 in assay [2] (setting [8]) amounted to 4950 µM; in assay [3] (setting [9]), 490 µM; in assay [4] (setting [10]), 55.2 µM; in assay [5], 55.4 µM.

Regarding `COc1ccccc1CCNC(=O)C(=O)Nc1ccc(Cl)cc1` [SW207004-1], the values for the IC50 in assay [2] (setting [11]), in assay [3] (setting [12]) and in assay [4] (setting [13]) were 49.5 µM, not below 49.5 µM and not below 49.5 µM, respectively.

`O=S(=O)(Nc1nc2ccccc2s1)c1ccc(C(F)(F)F)cc1` [SW202754]: the IC50 was 32.7 µM in assay [1]; 198 µM in assay [2] (setting [8]); 35.4 µM in assay [3] (setting [9]); 30.2 µM in assay [4] (setting [10]); 24.8 µM in assay [5].

As to `O=C(NCCc1ccc(Br)cc1)C(=O)Nc1ccc(Cl)cc1` [SW207005-1], the IC50 in assay [2] (setting [11]) was 49.5 µM; in assay [3] (setting [12]) it was not below 49.5 µM; in assay [4] (setting [13]), not below 49.5 µM.

On to `COc1ccc(CCNC(=O)C(=O)Nc2ccc(C)c(Br)c2)cc1` [SW207014-1], for which the values for the IC50 in assay [2] (setting [11]), in assay [3] (setting [12]) and in assay [4] (setting [13]) were 49.5 µM, 0.89 µM and not below 49.5 µM, respectively.

Take `COc1ccc2nc(NS(=O)(=O)c3ccccc3)sc2c1` [SW202750]: the results for the IC50 in assay [2] (setting [8]), in assay [4] (setting [10]) and in assay [5] were 127 µM, 144 µM and 97.6 µM, respectively.

Consider `Cc1ccc(NC(=O)c2sc3ccccc3c2Cl)c(F)c1` [SW202551], for which the IC50 in assay [3] (setting [9]) came out at 1.36 µM; in assay [6], 1.42 µM; in assay [7], 390 µM.

`COc1ccc(CCNC(=O)C(=O)Nc2ccc(C#N)cc2)cc1` [SW207017-1]: the values for the IC50 in assay [2] (setting [11]), in assay [3] (setting [12]) and in assay [4] (setting [13]) were 49.5 µM, 0.712 µM and not below 49.5 µM, respectively.

For the compound `COc1ccc2nc(NC(=O)c3cccc(C)c3)sc2c1` [SW202744], the IC50 in assay [1] was found to be 24.8 µM; in assay [2] (setting [8]), 36.2 µM; in assay [3] (setting [9]), 1.16 µM; in assay [4] (setting [10]), 53.5 µM; in assay [5], 25.6 µM.

As to `COC(=O)c1ccc(C(=O)Nc2nc3cc(N)ccc3s2)cc1` [SW004400], the IC50 in assay [1] is 77.5 µM; in assay [2] (setting [8]), 74.3 µM; in assay [3] (setting [9]), 297 µM; in assay [4] (setting [10]) it was 54.6 µM; in assay [5], 182 µM.

Consider `COc1ccc(CCNC(=O)C(=O)Nc2ccccc2Br)cc1` [SW207009-1], for which the IC50 in assay [2] (setting [11]) is 49.5 µM; in assay [3] (setting [12]), not below 49.5 µM; in assay [4] (setting [13]), not below 49.5 µM.

With `COc1ccc(C(=O)Nc2nc3cc(N)ccc3s2)cc1` [SW202739], the IC50 in assay [1] is 137 µM; in assay [2] (setting [8]), 250 µM; in assay [3] (setting [9]) it was 114 µM; in assay [4] (setting [10]), 132 µM; in assay [5] it was 126 µM.

As for `CCOC(=O)c1c(NC(=O)c2ccccc2)sc2c1CCCC2` [SW202858-1], the IC50 turned out to be 38.6 µM in assay [1], 48.8 µM in assay [2] (setting [8]) and 2.69 µM in assay [3] (setting [9]).

As to `CCOc1cccc(NC(=O)C(=O)NCCc2ccc(OC)cc2)c1` [SW207016-1], the figures for the IC50 in assay [2] (setting [11]), in assay [3] (setting [12]) and in assay [4] (setting [13]) were 49.5 µM, 23.8 µM and not below 49.5 µM, respectively.

As for `COc1ccc(CNC(=O)C(=O)NCc2ccc(OC)cc2)cc1` [SW207019-1], the IC50 was 49.5 µM in assay [2] (setting [11]), not below 49.5 µM in assay [3] (setting [12]) and not below 49.5 µM in assay [4] (setting [13]).

Consider `COc1ccc(CCNC(=O)C(=O)Nc2ccc(Cl)cc2C(F)(F)F)cc1` [SW207013-1], for which the IC50 in assay [2] (setting [11]) was 49.5 µM; in assay [3] (setting [12]) it was not below 49.5 µM; in assay [4] (setting [13]), not below 49.5 µM.

In the case of `COc1ccc(CCNC(=O)C(=O)Nc2cc(Cl)ccc2OC)cc1` [SW207011-1], the IC50 in assay [2] (setting [11]) is 49.5 µM; in assay [3] (setting [12]), not below 49.5 µM; in assay [4] (setting [13]) it was not below 49.5 µM.

As for `O=C(NCCc1ccc(Cl)cc1)C(=O)Nc1ccc(Cl)cc1` [SW207008-1], the IC50 in assay [2] (setting [11]) is 49.5 µM; in assay [3] (setting [12]), not below 49.5 µM; in assay [4] (setting [13]), not below 49.5 µM.

Regarding `COc1ccc(CCNC(=O)C(=O)Nc2ccc(OC(F)(F)F)c([N+](=O)[O-])c2)cc1` [SW207010-1], the IC50 was 49.5 µM in assay [2] (setting [11]), 0.331 µM in assay [3] (setting [12]) and not below 49.5 µM in assay [4] (setting [13]).

Consider `COc1ccc2nc(NC(=O)c3ccc(F)cc3)sc2c1` [SW008027], for which the IC50 is 24.6 µM in assay [1]; 32.2 µM in assay [2] (setting [8]); 0.899 µM in assay [3] (setting [9]); 67.3 µM in assay [4] (setting [10]); 5.1 µM in assay [5].
